Measurements: patent US8575349B2, “Derivatives of 1-alkyl-6-oxo-piperidine-3-carboxylic acids and 1-alkyl-5-oxo-pyrrolidine-3-carboxylic acids and their uses as cooling compounds” (International Flavors & Fragrances Inc., priority 2010, dated 2013)

What was measured:
Type in all cases: in vivo
[1] = Taste evaluation of the compound in water (cooling effect)
[2] = Chewing gum containing the compound: cooling/taste profile over time; conditions: for Profile: gum; for overall effect of test gum versus control gum: orange-flavored gum
Protocol: The above formulation was prepared in a Sigma mixer. The resultant chewing gum blend was manufactured into strips of 1 inch in width and 0.1 inches in thickness. The strips were subsequently cut into a length of 3 inches each. […] A test gum was further prepared by adding 1-(2-isopropyl-5-methyl-cyclohexyl)-4-(pyrrolidine-1-carbonyl)-pyrrolidin-2-one (Structure VI, 800 ppm) or 1-(2-isopropyl-5-methyl-cyclohexyl)-4-(piperidine-1-carbonyl)-pyrrolidin-2-one (Structure VII, 1200 ppm).

[3] = Hard candy containing the compound: cooling/taste profile over time; conditions: 300 ppm; for overall effect of test candy versus control candy: cherry flavored hard candy; for Profile: hard candy
Protocol: First, the following formulation was prepared: […]
The above formulation was added to a stainless steel pot. With constant mixing, the formulation temperature was raised to 138° C. The pot was then removed from the heat, allowing cool to 120° C. and 0.7 g of flavor containing the ingredients in equal amounts: benzaldehyde, tolyl aldehyde, ethyl acetate, maltol, Davana oil, methyl heptinyl carbonate and 3 g of citric acid was added. The resulting cherry flavored liquid candy was then deposited into molds, and the molds containing the liquid candy were cooled to room temperature, yielding 600 g of finished hard candy. […] A test candy was further prepared using the above recipe modified by adding 0.18 g of 1-(2-isopropyl-5-methyl-cyclohexyl)-4-(pyrrolidine-1-carbonyl)-pyrrolidin-2-one (Structure VI, 300 ppm) or 1-(2-isopropyl-5-methyl-cyclohexyl)-4-(piperidine-1-carbonyl)-pyrrolidin-2-one (Structure VII, 300 ppm).

COC(=O)C1CC(=O)N(C2CC(C)CCC2C(C)C)C1 (stereo not shown) [Structure I, 1-(2-isopropyl-5-methyl-cyclohexyl)-5-oxo-pyrrolidine-3-carboxylic acid methyl ester]
taste description / cooling effect ([1]; 10 ppm in water): mild cooling effect

CC1CCC(C(C)C)C(N2CC(C(=O)O)CC2=O)C1 (stereo not shown) [Structure II, 1-(2-isopropyl-5-methyl-cyclohexyl)-5-oxo-pyrrolidine-3-carboxylic acid]
taste description / cooling effect ([1]; 10 ppm in water): some cooling effect developed in the back of throat

CC(C)CNC(=O)C1CC(=O)N(C2CC(C)CCC2C(C)C)C1 (stereo not shown) [Structure III, 1-(2-isopropyl-5-methyl-cyclohexyl)-5-oxo-pyrrolidine-3-carboxylic acid isobutyl-amide]
taste description / cooling effect ([1]; 10 ppm in water): mild cooling effect

CCN(C)C(=O)C1CC(=O)N(C2CC(C)CCC2C(C)C)C1 (stereo not shown) [Structure IV, 1-(2-isopropyl-5-methyl-cyclohexyl)-5-oxo-pyrrolidine-3-carboxylic acid ethyl-methyl-amide]
taste description / cooling effect ([1]; 10 ppm in water): mild cooling effect

COC(=O)C1CC(=O)N(C2CCCCC2C)C1 (stereo not shown) [Structure IX, 1-(2-methyl-cyclohexyl)-5-oxo-pyrrolidine-3-carboxylic acid methyl ester]
taste description / cooling effect ([1]; 40 ppm in water): slight upfront bitterness for ˜20-30 seconds and mild cooling effect that slightly built up in a few minutes

CC1CCC(C(C)C)C(N2CC(C(=O)N3CCC3)CC2=O)C1 (stereo not shown) [Structure V, 4-(azetidine-1-carbonyl)-1-(2-isopropyl-5-methyl-cyclohexyl)-pyrrolidin-2-one]
taste description / cooling effect ([1]; 40 ppm in water): mild cooling, earthy, off-flavor, not bitter, napthalene, herbaceous, slight tingle effect on the tip of tongue, and garden hose, carrot, astringent, and waxy effect

CC1CCC(C(C)C)C(N2CC(C(=O)N3CCCC3)CC2=O)C1 (stereo not shown) [Structure VI, 1-(2-isopropyl-5-methyl-cyclohexyl)-4-(pyrrolidine-1-carbonyl)-pyrrolidin-2-one]
Profile ([2]; 800 ppm, at 1-3 minutes): At 1-3 minutes: cooling delocalized on the tongue; | Profile ([2]; 800 ppm, at 3-5 minutes): At 3-5 minutes: mild cooling located on the tongue; | Profile ([2]; 800 ppm, at 5-10 minutes): At 5-10 minutes: moderate cooling on the tongue and the roof | Profile ([2]; 800 ppm, at 20-30 minutes): At 20-30 minutes: clean sensation with a little bitterness. | overall effect of test gum versus control gum ([2]; 800 ppm): pleasant cooling effect | overall effect of test candy versus control candy [3]: substantial cooling effect | Profile ([3]; at 0-1 minute): At 0-1 minute: cooling with slight bitterness; | Profile ([3]; at 1-3 minutes): At 1-3 minutes: cooling built up; | Profile ([3]; at 3-5 minutes): At 3-5 minutes: cooling on the roof of mouth; | Profile ([3]; at 5-10 minutes): At 5-10 minutes: cooling with some bitterness; | Profile ([3]; at 10-20 minutes): At 10-20 minutes: cooling with mild bitterness; | Profile ([3]; at 20-30 minutes): At 20-30 minutes: cooling remained. | taste description / cooling effect ([1]; 10 ppm in water): mild cooling effect with slight bitterness, the cooling effect built up over the time | taste description / cooling effect ([1]; 50 ppm in water): cooling effect with bitterness, a menthol-like burning taste, and a nice built-up cooling taste

CC1CCC(C(C)C)C(N2CC(C(=O)N3CCCCC3)CC2=O)C1 (stereo not shown) [Structure VII, 1-(2-isopropyl-5-methyl-cyclohexyl)-4-(piperidine-1-carbonyl)-pyrrolidin-2-one]
Profile ([2]; 1200 ppm, at 0-1 minute): At 0-1 minute: cooling onset, throat and slight tongue irritation, | Profile ([2]; 1200 ppm, at 1-3 minutes): At 1-3 minutes: cooling and irritation delocalized with some | Profile ([2]; 1200 ppm, at 3-5 minutes): At 3-5 minutes: full mouth cooling, throughout mouth but not | Profile ([2]; 1200 ppm, at 5-10 minutes): At 5-10 minutes: strong cooling in mouth, concentrated in the | Profile ([2]; 1200 ppm, at 10-20 minutes): At 10-20 minutes: cooling peaked, consistent without any | Profile ([2]; 1200 ppm, at 20-30 minutes): At 20-30 minutes: strong cooling in mouth and throat, | overall effect of test gum versus control gum ([2]; 1200 ppm): pleasant cooling effect | overall effect of test candy versus control candy [3]: substantial cooling effect | Profile ([3]; at 0-1 minute): At 0-1 minute: bitterness; | Profile ([3]; at 1-3 minutes): At 1-3 minutes: cooling breath, strong cooling; | Profile ([3]; at 3-5 minutes): At 3-5 minutes: intense cooling; | Profile ([3]; at 5-10 minutes): At 5-10 minutes: intense cooling throughout mouth; | Profile ([3]; at 10-20 minutes): At 10-20 minutes: very strong cooling, almost burning; | Profile ([3]; at 20-30 minutes): At 20-30 minutes: strong and lasting cooling. | taste description / cooling effect ([1]; 40 ppm in water): slight upfront bitterness, herbaceous flavor, and built-up cooling effect

CC1CCC(C(C)C)C(N2CC(C(=O)N3CCCCCC3)CC2=O)C1 (stereo not shown) [Structure VIII, 4-(azepane-1-carbonyl)-1-(2-isopropyl-5-methyl-cyclohexyl)-pyrrolidin-2-one]
taste description / cooling effect ([1]; 40 ppm in water): bitterness and cooling effect and both built up

CC(C)(C)C1CCCCC1N1CC(C(=O)N2CCCC2)CC1=O (stereo not shown) [Structure X, 1-(2-tert-butyl-cyclohexyl)-4-(pyrrolidine-1-carbonyl)-pyrrolidin-2-one]
taste description / cooling effect ([1]; 40 ppm in water): upfront bitterness, quinine, drying, greasy, and burning effect

CC(C)(C)C1CCCCC1N1CC(C(=O)N2CCCCC2)CC1=O (stereo not shown) [Structure XI, 1-(2-tert-butyl-cyclohexyl)-4-(piperidine-1-carbonyl)-pyrrolidin-2-one]
taste description / cooling effect ([1]; 40 ppm in water): some bitterness and drying, powdery, and minimal cooling effect

CC1CCC(C(C)C)C(N2CC(C(=O)N3CCCC3)CCC2=O)C1 (stereo not shown) [Structure XII, 1-(2-isopropyl-5-methyl-cyclohexyl)-5-(pyrrolidine-1-carbonyl)-piperidin-2-one]
taste description / cooling effect ([1]; 40 ppm in water): slight cooling, and bitter and drying effect

CC1CCC(C(C)C)C(N2CC(C(=O)N3CCCCC3)CCC2=O)C1 (stereo not shown) [Structure XIII, 1-(2-isopropyl-5-methyl-cyclohexyl)-5-(piperidine-1-carbonyl)-piperidin-2-one]
taste description / cooling effect ([1]; 40 ppm in water): grapefruit-like bitterness, and very mild cooling and drying effect
